# Legend:
# [1] = in vivo; design: species or system SD rats; settings: rat; for AUC(0-inf) / AUC(0-t): SD
# Protocol: In this experiment, a total of 24 rats (12 of each sex) were provided by Beijing Vitong Lever Experimental Animal Technology Co., Ltd. Each animal was identified using a tail mark and had its health status confirmed by Suzhou WuXi AppTec’s veterinary team before use. The animal room was monitored for temperature and humidity, with data recorded daily to ensure that the relative humidity was maintained at 40%–70% and the temperature was between 20–26°C. The lighting adopted a 12-hour alternating light and dark mode. Regular growth feed was provided daily, and animals had ready access to water. […] Post-administration, the condition of the animals was observed and documented before and after each blood collection point. The ensemble of 24 SD rats was divided into four groups, with three specimens of each gender in each group. Animals in group 1 received a single intravenous bolus of 0.2 mg/kg BGM0504, and groups 2, 3, and 4 received a single subcutaneous injection of 0.3, 1.5, and 7.5 mg/kg BGM0504 in 20 mM citrate buffered solution (pH=7.0±0.2), respectively. Blood samples were collected for pharmacokinetic analysis at specific time points (0.5, 1, 2, 4, 8, 12, 24, 48, 72, 96, and 120 hours) before and after dosing. At the same time, blood glucose levels were measured before and at 1, 4, 8, 12, and 24 hours after dosing. The collected blood samples were transferred to labeled commercial sample tubes containing K2-EDTA, centrifuged, and plasma was retrieved; some were used for analysis, and the other part was reserved as a backup. Plasma was transferred to pre-cooled centrifuge tubes, snap-frozen in dry ice, and stored in an ultra-low temperature freezer at -60°C or lower until transported to the Drug Evaluation Department of WuXi AppTec Shanghai Drug Development Co., Ltd. for analysis.
# [2] = biological target: T1, Human GLP-1R (Homo sapiens, UniProt P43220); experiment: cAMP accumulation assay, GLP-1R; format: cell-based
# T1 construct: expressed in transfected cells; host or cells: HEK293 cells
# T1 sequence (P43220 24-463): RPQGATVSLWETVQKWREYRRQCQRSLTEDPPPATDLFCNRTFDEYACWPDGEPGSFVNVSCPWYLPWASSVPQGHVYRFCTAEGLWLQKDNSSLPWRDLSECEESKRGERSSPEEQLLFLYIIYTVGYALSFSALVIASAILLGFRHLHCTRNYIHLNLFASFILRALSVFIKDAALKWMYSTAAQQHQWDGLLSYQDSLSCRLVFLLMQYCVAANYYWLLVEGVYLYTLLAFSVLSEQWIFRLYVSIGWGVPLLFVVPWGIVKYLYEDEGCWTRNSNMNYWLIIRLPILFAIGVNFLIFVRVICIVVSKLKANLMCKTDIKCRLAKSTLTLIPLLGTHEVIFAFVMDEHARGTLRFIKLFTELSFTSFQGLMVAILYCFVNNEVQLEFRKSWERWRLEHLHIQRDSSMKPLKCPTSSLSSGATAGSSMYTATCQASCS
# Protocol: These cells were then resuspended in 5 mL of the assay buffer, and their concentration was determined using a Vi-Cell Counter. […] Samples were subsequently added to the assay plate along with ECHO555. […] A volume of 10 µL of the cell suspension was added to the assay plate, with a density of 1000 cells/well for GLP-1R testing and 2000 cells/well for GIPR testing. The assay plate was then incubated in a 23°C incubator for 30 minutes. A starting concentration of 800 nM was used to prepare the cAMP standard curve, followed by a 4-fold 10-point serial dilution. These serially diluted cAMP standards were added to the assay plate at a volume of 10 µL/well. Subsequently, 10 µL of the cAMP detection solution was added to the assay plate, and the plate was incubated at room temperature for 1 hour, shielded from direct light. […] For data analysis, each data point’s cAMP level (nM) was calculated using the established cAMP standard curve. The percentage activity for each data point was determined using the formula: % Activity = (cAMP level of testing sample - average cAMP level of low control) / ([…] cAMP level of high control - average cAMP level of […] control) × 100%. Additionally, the ‘log(agonist) vs. response – variable slope’ model in GraphPad Prism 5.0 was used to fit the dose-response curve of each sample and calculate the EC50 value.
# [3] = biological target: T2, Human Serum Albumin (HSA) protein (Homo sapiens, UniProt P02768); experiment: biochemical; format: binding
# T2 construct: purified Human ALB (25–609)-His was immobilized
# T2 sequence (P02768 25-609): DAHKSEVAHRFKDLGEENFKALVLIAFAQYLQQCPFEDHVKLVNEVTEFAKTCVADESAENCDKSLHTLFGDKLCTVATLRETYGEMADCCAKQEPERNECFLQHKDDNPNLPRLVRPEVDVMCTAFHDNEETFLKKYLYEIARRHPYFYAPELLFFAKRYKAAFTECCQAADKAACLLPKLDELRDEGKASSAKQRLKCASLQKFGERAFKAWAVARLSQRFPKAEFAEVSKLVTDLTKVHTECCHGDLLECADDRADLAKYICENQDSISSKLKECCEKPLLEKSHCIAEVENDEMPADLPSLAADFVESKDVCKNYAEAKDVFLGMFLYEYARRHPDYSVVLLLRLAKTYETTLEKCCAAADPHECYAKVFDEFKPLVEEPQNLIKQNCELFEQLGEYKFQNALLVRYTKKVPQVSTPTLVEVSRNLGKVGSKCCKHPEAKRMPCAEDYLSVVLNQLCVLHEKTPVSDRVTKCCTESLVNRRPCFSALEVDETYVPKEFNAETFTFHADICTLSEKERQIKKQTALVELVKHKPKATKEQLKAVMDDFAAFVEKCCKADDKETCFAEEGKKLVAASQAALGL
# Excerpt: The buffer used was PBST (PBS with 0.02% Tween 20).
# [4] = both sexes, Sprague-Dawley, iv, 0.2 mg/kg
# [5] = both sexes, Sprague-Dawley, sc, 0.3 mg/kg
# [6] = both sexes, Sprague-Dawley, sc, 1.5 mg/kg
# [7] = both sexes, Sprague-Dawley, sc, 7.5 mg/kg
smiles,measurement,setting,value
CC[C@H](C)[C@H](NC(=O)[C@H](CC(C)C)NC(=O)[C@H](Cc1c[nH]c2ccccc12)NC(=O)[C@H](CCC(N)=O)NC(=O)[C@@H](NC(=O)[C@H](Cc1ccccc1)NC(=O)[C@H](C)NC(=O)[C@H](CCCCN)NC(=O)[C@H](CCC(N)=O)NC(=O)[C@H](C)NC(=O)[C@@H](NC(=O)[C@H](CCCCN)NC(=O)[C@H](CC(=O)O)NC(=O)[C@H](CC(C)C)NC(=O)C(C)(C)NC(=O)[C@@H](NC(=O)[C@H](CO)NC(=O)[C@H](Cc1ccc(O)cc1)NC(=O)[C@H](CC(=O)O)NC(=O)[C@H](CO)NC(=O)[C@@H](NC(=O)[C@H](Cc1ccccc1)NC(=O)[C@@H](NC(=O)CNC(=O)[C@H](CCC(=O)O)NC(=O)C(C)(C)NC(=O)[C@@H](N)Cc1ccc(O)cc1)[C@@H](C)O)[C@@H](C)O)[C@@H](C)CC)[C@@H](C)CC)C(C)C)C(=O)N[C@@H](C)C(=O)NCC(=O)NCC(=O)N1CCC[C@H]1C(=O)N[C@@H](CO)C(=O)N[C@@H](CO)C(=O)NCC(=O)N[C@@H](C)C(=O)N1CCC[C@H]1C(=O)N1CCC[C@H]1C(=O)N1CCC[C@H]1C(=O)N[C@@H](CO)C(=O)N[C@@H](CCCCNC(=O)COCCOCCOCCNC(=O)COCCOCCOCCNC(=O)CC[C@H](NC(=O)CCCCCCCCCCCCCCCCCCC(=O)O)C(=O)O)C(N)=O [BGM0504],AUC(0-inf),"[1]; both sexes, iv, 0.2 mg/kg",50000 ng·h/mL
same,AUC(0-inf),"[1]; both sexes, sc, 0.3 mg/kg",33400 ng·h/mL
same,AUC(0-t),"[1]; both sexes, sc, 0.3 mg/kg",33200 ng·h/mL
same,AUC(0-inf),"[1]; both sexes, sc, 1.5 mg/kg",154000 ng·h/mL
same,AUC(0-t),"[1]; both sexes, sc, 1.5 mg/kg",153000 ng·h/mL
same,AUC(0-inf),"[1]; both sexes, sc, 7.5 mg/kg",643000 ng·h/mL
same,AUC(0-t),"[1]; both sexes, sc, 7.5 mg/kg",637000 ng·h/mL
same,C0,[1]; [4],4650 ± 411 ng/mL
same,Vd,[1]; [4],0.0648 ± 0.0058 L/kg
same,clearance,[1]; [4],4.08 ± 0.618 mL/h/kg
same,half-life,[1]; [4],13.6 ± 2.3 h
same,Cmax,[1]; [5],814 ± 111 ng/mL
same,Tmax,[1]; [5],24 h
same,bioavailability,[1]; [5],44.5%
same,half-life,[1]; [5],14.5 ± 1.4 h
same,Cmax,[1]; [6],3830 ± 705 ng/mL
same,Tmax,[1]; [6],24 h
same,bioavailability,[1]; [6],41.1%
same,half-life,[1]; [6],13.4 ± 1.5 h
same,Cmax,[1]; [7],15100 ng/mL
same,Tmax,[1]; [7],20 ± 6.2 h
same,bioavailability,[1]; [7],34.3%
same,half-life,[1]; [7],14.7 ± 2.4 h
same,AUC0-24,"[1]; iv, 0.2 mg/kg",38800 ng·h/mL
same,AUC0-last,"[1]; iv, 0.2 mg/kg",49800 ng·h/mL
same,AUC0–last (as headed in Table 1),"[1]; iv, 0.2 mg/kg","38,800 ± 5150 ng h/mL"
same,AUC0–∞ (as headed in Table 1),"[1]; iv, 0.2 mg/kg","49,800 ± 7470 ng h/mL"
same,AUC0-24,"[1]; sc, 0.3 mg/kg",14100 ng·h/mL
same,AUC0–last (as headed in Table 1),"[1]; sc, 0.3 mg/kg","14,100 ± 2440 ng h/mL"
same,AUC0–∞ (as headed in Table 1),"[1]; sc, 0.3 mg/kg","33,200 ± 6190 ng h/mL"
same,AUC0-24,"[1]; sc, 1.5 mg/kg",63900 ng·h/mL
same,AUC0–last (as headed in Table 1),"[1]; sc, 1.5 mg/kg","63,900 ± 11,400 ng h/mL"
same,AUC0–∞ (as headed in Table 1),"[1]; sc, 1.5 mg/kg","153,000 ± 27,700 ng h/mL"
same,AUC0-24,"[1]; sc, 7.5 mg/kg",269000 ng·h/mL
same,AUC0–last (as headed in Table 1),"[1]; sc, 7.5 mg/kg","269,000 ± 43,000 ng h/mL"
same,AUC0–∞ (as headed in Table 1),"[1]; sc, 7.5 mg/kg","637,000 ± 88,700 ng h/mL"
same,EC50,"[2]; HEK293 cells with high expression of GLP-1 receptor, 1000 cells/well, 30 min 23°C, geometric mean ± SEM, n = 3",0.031 nM
same,Emax,"[2]; HEK293 cells, relative to 10 nM GLP-1(7–37) high control, arithmetic mean ± SEM",92.7 ± 7.6%
same,Kd,[3],73 nM

# — PMC11271627, “Molecular dynamics-guided optimization of BGM0504 enhances dual-target agonism for combating diabetes and obesity” (Scientific Reports, 2024)
